Source: PubChem BioAssay (NCI)
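Following 48 hours of exposure in 96-well plates, responses at five concentrations were used to interpolate endpoints linearly. TGI: concentration producing complete growth inhibition.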

Columns and labels:
Assay in all cases: NCI tumour cell line growth inhibition, 48 h
SF-295 CNS = test system: SF-295 CNS
MALME-3M melanoma = test system: MALME-3M melanoma
RXF 393 renal = test system: RXF 393 renal
NCI/ADR-RES ovarian = test system: NCI/ADR-RES ovarian
HT29 colon = test system: HT29 colon
K-562 leukemia = test system: K-562 leukemia
SNB-19 CNS = test system: SNB-19 CNS
KM12 colon = test system: KM12 colon
HOP-92 NSCLC = test system: HOP-92 NSCLC
IGROV1 ovarian = test system: IGROV1 ovarian
OVCAR-3 ovarian = test system: OVCAR-3 ovarian
SF-268 CNS = test system: SF-268 CNS
MDA-MB-231 breast = test system: MDA-MB-231 breast
MDA-N = test system: MDA-N
NCI-H226 lung = test system: NCI-H226 lung
ACHN renal = test system: ACHN renal
SR leukemia = test system: SR leukemia
NCI-H460 lung = test system: NCI-H460 lung
SW-620 colon = test system: SW-620 colon
BT-549 breast = test system: BT-549 breast
HCT-15 colon = test system: HCT-15 colon
A549 NSCLC = test system: A549 NSCLC
OVCAR-5 ovarian = test system: OVCAR-5 ovarian
DU-145 prostate = test system: DU-145 prostate
SF-539 CNS = test system: SF-539 CNS
SK-MEL-5 melanoma = test system: SK-MEL-5 melanoma
UO-31 renal = test system: UO-31 renal
CAKI-1 renal = test system: CAKI-1 renal
UACC-62 melanoma = test system: UACC-62 melanoma
NCI-H23 lung = test system: NCI-H23 lung
SK-OV-3 ovarian = test system: SK-OV-3 ovarian
COLO 205 colon = test system: COLO 205 colon
M14 melanoma = test system: M14 melanoma
MDA-MB-435 = test system: MDA-MB-435
UACC-257 melanoma = test system: UACC-257 melanoma
HCT-116 colon = test system: HCT-116 colon
SNB-75 CNS = test system: SNB-75 CNS
HL-60(TB) leukemia = test system: HL-60(TB) leukemia
SK-MEL-2 melanoma = test system: SK-MEL-2 melanoma
HS 578T breast = test system: HS 578T breast
NCI-H522 lung = test system: NCI-H522 lung
PC-3 prostate = test system: PC-3 prostate
OVCAR-4 ovarian = test system: OVCAR-4 ovarian
786-0 renal = test system: 786-0 renal
RPMI-8226 leukemia = test system: RPMI-8226 leukemia
SN12C renal = test system: SN12C renal
T-47D breast = test system: T-47D breast
OVCAR-8 ovarian = test system: OVCAR-8 ovarian
MOLT-4 leukemia = test system: MOLT-4 leukemia
U251 CNS = test system: U251 CNS
SK-MEL-28 melanoma = test system: SK-MEL-28 melanoma
HOP-62 NSCLC = test system: HOP-62 NSCLC
TK-10 renal = test system: TK-10 renal
MCF7 breast = test system: MCF7 breast
CCRF-CEM leukemia = test system: CCRF-CEM leukemia
EKVX NSCLC = test system: EKVX NSCLC
A498 renal = test system: A498 renal
HCC-2998 colon = test system: HCC-2998 colon
LOX IMVI melanoma = test system: LOX IMVI melanoma

`CC(C)c1cc(C(F)(F)F)nc(NNc2nc(C(C)C)cc(C(F)(F)F)n2)n1` was tested, and the TGI (SF-295 CNS) was > 100 µM, the TGI (MALME-3M melanoma) was > 100 µM and the TGI (RXF 393 renal) was > 100 µM. The TGI (NCI/ADR-RES ovarian) was > 100 µM, the TGI (HT29 colon) was > 100 µM and the TGI (K-562 leukemia) was > 100 µM. For the same compound, the TGI (SNB-19 CNS) was > 100 µM, the TGI (KM12 colon) was > 100 µM and the TGI (HOP-92 NSCLC) was > 100 µM. For the same compound, the TGI (IGROV1 ovarian) was > 100 µM, the TGI (OVCAR-3 ovarian) was 85.5 µM and the TGI (SF-268 CNS) was > 100 µM. The TGI (MDA-MB-231 breast) was > 100 µM, the TGI (MDA-N) was > 100 µM and the TGI (NCI-H226 lung) was > 100 µM. The TGI (ACHN renal) was > 100 µM, the TGI (SR leukemia) was > 100 µM and the TGI (NCI-H460 lung) was > 100 µM. For the same compound, the TGI (SW-620 colon) was > 100 µM, the TGI (BT-549 breast) was > 100 µM and the TGI (HCT-15 colon) was > 100 µM. For the same compound, the TGI (A549 NSCLC) was > 100 µM, the TGI (OVCAR-5 ovarian) was > 100 µM and the TGI (DU-145 prostate) was > 100 µM. For the same compound, the TGI (SF-539 CNS) was > 100 µM, the TGI (SK-MEL-5 melanoma) was > 100 µM and the TGI (UO-31 renal) was > 100 µM. The TGI (CAKI-1 renal) was > 100 µM, the TGI (UACC-62 melanoma) was > 100 µM and the TGI (NCI-H23 lung) was > 100 µM. The TGI (SK-OV-3 ovarian) was > 100 µM, the TGI (COLO 205 colon) was > 100 µM and the TGI (M14 melanoma) was > 100 µM. For the same compound, the TGI (MDA-MB-435) was > 100 µM, the TGI (UACC-257 melanoma) was > 100 µM and the TGI (HCT-116 colon) was > 100 µM. The TGI (SNB-75 CNS) was 95.8 µM, the TGI (HL-60(TB) leukemia) was > 100 µM and the TGI (SK-MEL-2 melanoma) was > 100 µM. For the same compound, the TGI (HS 578T breast) was > 100 µM, the TGI (NCI-H522 lung) was > 100 µM and the TGI (PC-3 prostate) was > 100 µM. The TGI (OVCAR-4 ovarian) was > 100 µM, the TGI (786-0 renal) was > 100 µM and the TGI (RPMI-8226 leukemia) was > 100 µM. The TGI (SN12C renal) was > 100 µM, the TGI (T-47D breast) was > 100 µM and the TGI (OVCAR-8 ovarian) was > 100 µM. The TGI (MOLT-4 leukemia) was > 100 µM, the TGI (U251 CNS) was > 100 µM and the TGI (SK-MEL-28 melanoma) was > 100 µM. For the same compound, the TGI (HOP-62 NSCLC) was 86.4 µM, the TGI (TK-10 renal) was 56.1 µM and the TGI (MCF7 breast) was > 100 µM. For the same compound, the TGI (CCRF-CEM leukemia) was > 100 µM, the TGI (EKVX NSCLC) was > 100 µM and the TGI (A498 renal) was > 100 µM.
For `COc1ccc(C=Nc2c(O)ccc3ccccc23)cc1OC`, the TGI (SF-295 CNS) was > 100 µM, the TGI (MALME-3M melanoma) was 41.2 µM and the TGI (RXF 393 renal) was > 100 µM. For the same compound, the TGI (NCI/ADR-RES ovarian) was > 100 µM, the TGI (HT29 colon) was > 100 µM and the TGI (K-562 leukemia) was > 100 µM. The TGI (SNB-19 CNS) was > 100 µM, the TGI (KM12 colon) was > 100 µM and the TGI (HOP-92 NSCLC) was 59 µM. For the same compound, the TGI (IGROV1 ovarian) was > 100 µM, the TGI (OVCAR-3 ovarian) was 70.9 µM and the TGI (SF-268 CNS) was > 100 µM. For the same compound, the TGI (MDA-MB-231 breast) was > 100 µM, the TGI (MDA-N) was 35.1 µM and the TGI (NCI-H226 lung) was > 100 µM. The TGI (ACHN renal) was > 100 µM, the TGI (SR leukemia) was > 100 µM and the TGI (NCI-H460 lung) was > 100 µM. For the same compound, the TGI (SW-620 colon) was > 100 µM, the TGI (BT-549 breast) was > 100 µM and the TGI (HCT-15 colon) was > 100 µM. For the same compound, the TGI (A549 NSCLC) was > 100 µM, the TGI (OVCAR-5 ovarian) was > 100 µM and the TGI (DU-145 prostate) was > 100 µM. For the same compound, the TGI (SF-539 CNS) was > 100 µM, the TGI (SK-MEL-5 melanoma) was > 100 µM and the TGI (UO-31 renal) was > 100 µM. For the same compound, the TGI (CAKI-1 renal) was > 100 µM, the TGI (UACC-62 melanoma) was > 100 µM and the TGI (HCC-2998 colon) was > 100 µM. For the same compound, the TGI (NCI-H23 lung) was > 100 µM, the TGI (SK-OV-3 ovarian) was > 100 µM and the TGI (COLO 205 colon) was > 100 µM. For the same compound, the TGI (M14 melanoma) was > 100 µM, the TGI (MDA-MB-435) was 33.4 µM and the TGI (UACC-257 melanoma) was > 100 µM. For the same compound, the TGI (HCT-116 colon) was > 100 µM, the TGI (SNB-75 CNS) was > 100 µM and the TGI (HL-60(TB) leukemia) was > 100 µM. For the same compound, the TGI (SK-MEL-2 melanoma) was > 100 µM, the TGI (HS 578T breast) was > 100 µM and the TGI (NCI-H522 lung) was 64.2 µM. For the same compound, the TGI (PC-3 prostate) was > 100 µM, the TGI (OVCAR-4 ovarian) was > 100 µM and the TGI (786-0 renal) was > 100 µM. The TGI (RPMI-8226 leukemia) was > 100 µM, the TGI (SN12C renal) was > 100 µM and the TGI (T-47D breast) was > 100 µM. The TGI (OVCAR-8 ovarian) was > 100 µM, the TGI (LOX IMVI melanoma) was > 100 µM and the TGI (U251 CNS) was > 100 µM. For the same compound, the TGI (SK-MEL-28 melanoma) was > 100 µM, the TGI (HOP-62 NSCLC) was > 100 µM and the TGI (TK-10 renal) was > 100 µM. The TGI (MCF7 breast) was > 100 µM, the TGI (CCRF-CEM leukemia) was > 100 µM and the TGI (EKVX NSCLC) was > 100 µM. For the same compound, the TGI (A498 renal) was > 100 µM.
